Patent US20100267561A1, “HERBICIDAL PYRIDAZINONE DERIVATIVES” (priority 2007, published 2010)

Legend:
Test in all cases: Test B pre-/postemergence plant response
Type in all cases: in vivo
[1] = test system: corn (Zea mays)
Summary of the method: (§1)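 Preemergence and postemergence (plants 2-18 cm, 1- to 4-leaf stage) applications used test chemicals in a non-phytotoxic solvent with surfactant. Plants were held in a greenhouse 13 to 15 days, then rated visually against controls on a 0-100 scale (0 no effect, 100 complete control).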

[2] = test system: lambsquarters (Chenopodium album)
Summary of the method: as §1

[3] = test system: johnsongrass (Sorghum halepense)
Summary of the method: as §1

[4] = test system: blackgrass (Alopecurus myosuroides); conditions: for Blackgrass plant response rating: 8 g ai/ha
Summary of the method: as §1

[5] = test system: giant foxtail (Setaria faberii)
Summary of the method: as §1

[6] = test system: kochia (Kochia scoparia)
Summary of the method: as §1

[7] = test system: common ragweed (Ambrosia elation)
Summary of the method: as §1

[8] = test system: morningglory (Ipomoea coccinea)
Summary of the method: as §1

[9] = test system: bermudagrass (Cynodon dactylon); conditions: for Bermudagrass plant response rating: 8 g ai/ha
Summary of the method: as §1

[10] = test system: surinam grass (Brachiaria decumbens)
Summary of the method: as §1

[11] = test system: eastern black (E.B.) nightshade (Solanum ptycanthum); conditions: Preemergence
Summary of the method: as §1

[12] = test system: wild oat (Avena fatua)
Summary of the method: as §1

[13] = test system: Italian ryegrass (Lolium multiflorum)
Summary of the method: as §1

[14] = test system: yellow nutsedge (Cyperus esculentus)
Summary of the method: as §1

[15] = 8 g ai/ha, postemergence, 0-100 scale
[16] = Postemergence, 16 g ai/ha, scale 0 to 100
[17] = Postemergence, 31 g ai/ha, scale 0 to 100
[18] = Postemergence, 62 g ai/ha, scale 0 to 100, 0 no effect, 100 complete control
[19] = Preemergence, 31 g ai/ha, 0 to 100 scale, 0 no effect, 100 complete control
[20] = Preemergence, 62 g ai/ha, scale 0 to 100
[21] = Preemergence, 8 g ai/ha, scale 0 to 100
[22] = Preemergence, 16 g ai/ha, scale 0 to 100
[23] = Preemergence, 16 g ai/ha, scale 0 to 100 (0 no effect, 100 complete control)
[24] = Preemergence, 31 g ai/ha, scale 0 to 100 (0 no effect, 100 complete control)

## Cc1cc(-c2ccc(Cl)cc2)nn1-c1c(OC(=O)c2cccs2)cnn(C)c1=O [Compound 52]
[1]; [15]
  Corn plant response rating: 85
[1]; [16]
  Plant response rating, Corn: 98
[1]; [17]
  Plant response rating, Corn: 98
[1]; [18]
  Plant response rating, Corn: 98
[1]; [19]
  Plant response rating, Corn: 70
[1]; [20]
  Plant response rating, Corn: 75
[1]; [21]
  Corn plant response rating: 0
[1]; [22]
  Corn plant response rating: 55
[2]; [15]
  Lambsquarters plant response rating: 0
[2]; [16]
  Plant response rating, Lambsquarters: 0
[2]; [17]
  Plant response rating, Lambsquarters: 0
[2]; [18]
  Plant response rating, Lambsquarters: 0
[2]; [19]
  Plant response rating, Lambsquarters: 0
[2]; [20]
  Plant response rating, Lambsquarters: 0
[2]; [21]
  Lambsquarters plant response rating: 0
[2]; [22]
  Lambsquarters plant response rating: 0
[3]; [15]
  Johnsongrass plant response rating: 75
[3]; [16]
  Plant response rating, Johnsongrass: 80
[3]; [17]
  Plant response rating, Johnsongrass: 90
[3]; [18]
  Plant response rating, Johnsongrass: 95
[3]; [19]
  Plant response rating, Johnsongrass: 80
[3]; [20]
  Plant response rating, Johnsongrass: 85
[3]; [21]
  Johnsongrass plant response rating: 55
[3]; [22]
  Johnsongrass plant response rating: 65
[4]; postemergence, 0-100 scale
  Blackgrass plant response rating: 50
[4]; [16]
  Plant response rating, Blackgrass: 70
[4]; [17]
  Plant response rating, Blackgrass: 95
[4]; [18]
  Plant response rating, Blackgrass: 95
[4]; [23]
  Plant response rating, Blackgrass: 95
[4]; [19]
  Plant response rating, Blackgrass: 100
[4]; [20]
  Plant response rating, Blackgrass: 100
[4]; Preemergence, scale 0 to 100
  Blackgrass plant response rating: 0
[5]; [15]
  Foxtail, Giant plant response rating: 85
[5]; [16]
  Plant response rating, Foxtail, Giant: 98
[5]; [17]
  Plant response rating, Foxtail, Giant: 100
[5]; [18]
  Plant response rating, Foxtail, Giant: 100
[5]; [19]
  Plant response rating, Foxtail, Giant: 0
[5]; [20]
  Plant response rating, Foxtail, Giant: 98
[5]; [21]
  Foxtail, Giant plant response rating: 0
[5]; [22]
  Foxtail, Giant plant response rating: 0
[6]; [15]
  Kochia plant response rating: 0
[6]; [16]
  Plant response rating, Kochia: 0
[6]; [17]
  Plant response rating, Kochia: 0
[6]; [18]
  Plant response rating, Kochia: 0
[6]; [20]
  Plant response rating, Kochia: 85
[6]; [21]
  Kochia plant response rating: 0
[6]; [22]
  Kochia plant response rating: 0
[7]; [15]
  Ragweed plant response rating: 0
[7]; [16]
  Plant response rating, Ragweed: 0
[7]; [17]
  Plant response rating, Ragweed: 0
[7]; [18]
  Plant response rating, Ragweed: 0
[7]; [24]
  Plant response rating, Ragweed: 0
[7]; [20]
  Plant response rating, Ragweed: 0
[7]; [21]
  Ragweed plant response rating: 0
[7]; [22]
  Ragweed plant response rating: 0
[8]; [15]
  Morningglory plant response rating: 0
[8]; [16]
  Plant response rating, Morningglory: 0
[8]; [17]
  Plant response rating, Morningglory: 0
[8]; [18]
  Plant response rating, Morningglory: 0
[8]; [24]
  Plant response rating, Morningglory: 90
[8]; [20]
  Plant response rating, Morningglory: 100
[8]; [21]
  Morningglory plant response rating: 0
[8]; [22]
  Morningglory plant response rating: 0
[9]; postemergence, 0-100 scale
  Bermudagrass plant response rating: 40
[9]; [16]
  Plant response rating, Bermudagrass: 98
[9]; [17]
  Plant response rating, Bermudagrass: 100
[9]; [18]
  Plant response rating, Bermudagrass: 100
[9]; Preemergence, scale 0 to 100 (0 no effect, 100 complete control)
  Bermudagrass plant response rating: 0
[9]; [23]
  Plant response rating, Bermudagrass: 0
[9]; [19]
  Plant response rating, Bermudagrass: 0
[9]; [20]
  Plant response rating, Bermudagrass: 85
[10]; [15]
  Surinam Grass plant response rating: 70
[10]; [16]
  Plant response rating, Surinam Grass: 85
[10]; [17]
  Plant response rating, Surinam Grass: 100
[10]; [18]
  Plant response rating, Surinam Grass: 100
[10]; [24]
  Plant response rating, Surinam Grass: 25
[10]; Preemergence, 62 g ai/ha, 0 to 100 scale, 0 no effect, 100 complete control
  Plant response rating, Surinam Grass: 100
[10]; [21]
  Surinam Grass plant response rating: 0
[10]; [22]
  Surinam Grass plant response rating: 0
[11]; 31 g ai/ha, scale 0 to 100 (0 no effect, 100 complete control)
  Plant response rating, Nightshade, E. B.: 0
[11]; 62 g ai/ha, scale 0 to 100
  Plant response rating, Nightshade, E. B.: 0
[11]; 8 g ai/ha, scale 0 to 100
  Nightshade, E. B. plant response rating: 0
[11]; 16 g ai/ha, scale 0 to 100
  Nightshade, E. B. plant response rating: 0
[12]; [15]
  Oat, Wild plant response rating: 50
[12]; [16]
  Plant response rating, Oat, Wild: 90
[12]; [17]
  Plant response rating, Oat, Wild: 95
[12]; [18]
  Plant response rating, Oat, Wild: 100
[12]; [24]
  Plant response rating, Oat, Wild: 70
[12]; [20]
  Plant response rating, Oat, Wild: 90
[12]; [21]
  Oat, Wild plant response rating: 0
[12]; [22]
  Oat, Wild plant response rating: 30
[13]; [15]
  Ryegrass, Italian plant response rating: 70
[13]; [16]
  Plant response rating, Ryegrass, Italian: 80
[13]; [17]
  Plant response rating, Ryegrass, Italian: 95
[13]; [18]
  Plant response rating, Ryegrass, Italian: 100
[13]; [24]
  Plant response rating, Ryegrass, Italian: 95
[13]; [20]
  Plant response rating, Ryegrass, Italian: 100
[13]; [21]
  Ryegrass, Italian plant response rating: 0
[13]; [22]
  Ryegrass, Italian plant response rating: 95
[14]; [15]
  Nutsedge, Yellow plant response rating: 0
[14]; [16]
  Plant response rating, Nutsedge, Yellow: 0
[14]; [17]
  Plant response rating, Nutsedge, Yellow: 0
[14]; [18]
  Plant response rating, Nutsedge, Yellow: 0
[14]; [24]
  Plant response rating, Nutsedge, Yellow: 0
[14]; [20]
  Plant response rating, Nutsedge, Yellow: 0
[14]; [21]
  Nutsedge, Yellow plant response rating: 0
[14]; [22]
  Nutsedge, Yellow plant response rating: 0
